From US8637665B2, “Pyrrolo[2,L-C][L,4]benzodiazepine-benzothiazole or benzoxazole conjugates linked through piperazine moiety and process for the preparation thereof” (priority 2010, dated 2014)

Experiments:
[1] = tested on: eight tumour cells lines derived from seven cancer types; assay: In vitro anticancer activity, SRB assay, panel of eight cell lines; type: cell-based; settings: Homo sapiens, range over the eight cell lines per compound; read-out: GI50 range against cancer cell lines
Procedure, shortened: (§1)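 Cells are exposed to compound continuously for 48 h across at least five 10-fold dilutions, then stained with sulforhodamine B to estimate growth. GI50 and LC50 come from the dose-response curves.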

[2] = tested on: MCF-7 (breast cancer) xenografts; assay: In vivo efficacy study on xenograft MCF-7; settings: MCF-7 xenograft, scid male mice; compared with positive control adriamycin
From the text: (§2) References may be made to patent “WO/2008/099416” wherein Benzothiazole or benzoxazole linked Pyrrolo[2,1-c][1,4] benzodiazepine hybrid as anticancer agent has been reported. References may be made to patent “U.S. Pat. No. 6,979,684” wherein Pyrrolo[2,1-c][1,4] benzodiazepine and naphthalimide are linked through piperazine moiety. The linking of pharmacophore like napthalimide and piperazine to pyrroloberizodiazepine can not be considered similar to a pharmacophore like benzothiazole as each pharmacophore is known for certain biological property. In the present investigation the benzothiaole and piperazine subunits are considered to be a different heterocyclic moieties compared to the earlier reported pharmacophores like napthalimide. Therefore, this structural variation of benzothiazole with piperazine moiety has been utilized for DNA binding aspect. Keeping this in mind, these new conjugates have been designed and synthesized to further improve the anticancer activity including the DNA binding affinity. The anticancer activity may not depend on the DNA binding activity. […] Moreover, one of the potent conjugate 9f (IICT-302) of this series has been evaluated for its in vivo efficacy studies (in scid male mice) against MCF-7 (breast cancer) and PC-3 (prostate cancer) xenografts by using adriamycin as a positive control.
FIG. 2 represents in vivo efficacy study of compound 9f on xenograft MCF-7.
(§3) The structural variation of benzothiazole/benzoxazole with piperazine moiety has been utilized for DNA binding aspect. Moreover, one of the potent conjugate 9f (IICT-302) of this series has been evaluate for its in vivo efficacy studies against MCF-7 (breast cancer) and PC-3 (prostate cancer) by using Adriamycin as positive control.

[3] = tested on: PC-3 (prostate cancer) xenografts; assay: In vivo efficacy study on xenograft PC3; settings: PC-3 xenograft, scid male mice; compared with positive control adriamycin
From the text: as §2
FIG. 3 represents in vivo efficacy study of compound 9f on xenograft PC3.
as §3

[4] = tested on: KB (oral cancer) cell line; assay: In vitro anticancer activity, SRB assay, KB; type: cell-based, human; settings: Homo sapiens, 48 h
Procedure, shortened: (§4)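 Read-out was sulforhodamine B protein staining after 48 h of continuous compound exposure. Growth is expressed as percent of untreated controls, from which the concentrations giving 50% growth inhibition (GI50) and 50% cell death (LC50) were derived.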

[5] = tested on: duplex-form calf thymus DNA (CT-DNA); assay: Thermal denaturation studies with calf thymus DNA (DNA binding affinity); settings: [PBD]:[DNA] 1:5, CT-DNA 100 μM, ligand 20 μM, pH 7.00
Procedure, shortened: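 CT-DNA (100 μm in phosphate) with PBD (20 μm; 1:5 PBD/DNA molar ratio) in 10 mM sodium phosphate, 1 mM Na2EDTA, pH 7.00, incubated at 37° C for 0 and 18 h. A260 monitored while heating at 1° C min^−1 over 40-110° C; Tm from d(A260)/dT maxima, ΔTm versus drug-free DNA.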

[6] = tested on: PC 3 (prostate cancer) cell line; assay: cells; type: cell-based; settings: Homo sapiens, 48 h
Procedure, shortened: as §1

[7] = tested on: MCF 7 (breast cancer) cell line; assay: cells; type: cell-based; settings: Homo sapiens, MCF7, 48 h
Procedure, shortened: as §1

[8] = tested on: A 2780 (ovary cancer) cell line; assay: cells; type: cell-based; settings: Homo sapiens, A2780, 48 h
Procedure, shortened: as §1

[9] = tested on: A 549 (lung cancer) cell line; assay: cells; type: cell-based; settings: Homo sapiens, A549, 48 h
Procedure, shortened: as §1

[10] = tested on: HOP 62 (lung cancer) cell line; assay: cells; type: cell-based; settings: Homo sapiens, HOP-62, 48 h
Procedure, shortened: as §4

[11] = tested on: SiHa (cervix cancer) cell line; assay: cells; type: cell-based; settings: Homo sapiens, SiHa, 48 h
Procedure, shortened: as §1

[12] = tested on: Colo 205 (colon cancer) cell line; assay: cells; type: cell-based; settings: Homo sapiens, COLO 205, 48 h
Procedure, shortened: as §1

Which results are given for `COc1cc(-c2nc3ccccc3s2)ccc1OCCCCN1CCN(CCCCOc2cc3c(cc2OC)C(=O)N2CCC[C@H]2C=N3)CC1` [Compound 9f, 7-Methoxy-8-[4-(4-{4-[4(1,3-benzothiazol-2-yl)-2-methoxyphenoxy]butyl}piperazin-1-yl)butyl]oxy-(11aS)-1,2,3,11a-tetrahydro-5H-pyrrolo[2,1-c][1,4]benzodiazepin-5-one]?
GI50 [1]: < 10 nM; RTV in in vivo efficacy study [2]: good RTV; survival data in in vivo efficacy study [2]: good survival data; toxicity in in vivo efficacy study [2]: less toxicity; RTV in in vivo efficacy study [3]: good RTV; survival data in in vivo efficacy study [3]: good survival data; toxicity in in vivo efficacy study [3]: less toxicity; GI50 ([4]; read-out: GI50 KB, 48 h drug exposure, SRB, mean of three determinations): < 10 nM; CC50 ([4]; read-out: LC50 KB, 50% cell death, 48 h drug exposure, SRB): 180 nM; ΔTm after incubation at 37° C. for 0 h ([5]; 0 h): 15.5 °C; ΔTm after incubation at 37° C. for 18 h ([5]; 18 h): 15.9 °C; GI50 ([6]; read-out: GI50 PC 3): < 10 nM; CC50 ([6]; read-out: LC50 Pc 3, 50% cell death, 48 h drug exposure, SRB): 2400 nM; GI50 ([7]; read-out: GI50 MCF 7): < 10 nM; LC50 (concentration causing 50% cell death) ([7]; read-out: LC50 MCF 7, 50% cell death, 48 h drug exposure, SRB): < 10 nM; GI50 ([8]; read-out: GI50 A 2780, 48 h drug exposure, SRB, mean of three determinations): < 10 nM; CC50 ([8]; read-out: LC50 A 2780, 50% cell death, 48 h drug exposure, SRB): 89 nM; GI50 ([9]; read-out: GI50 A 549, 48 h drug exposure, SRB, mean of three determinations): < 10 nM; CC50 ([9]; read-out: LC50 A 549, 50% cell death, 48 h drug exposure, SRB): > 100000 nM; GI50 ([10]; read-out: GI50 HOP 62, 48 h drug exposure, SRB, mean of three determinations): < 10 nM; LC50 ([10]; read-out: LC50 HOP 62, 50% cell death, 48 h drug exposure, SRB): 2400 nM; GI50 ([11]; read-out: GI50 SiHa, 48 h drug exposure, SRB, mean of three determinations): < 10 nM; LC50 (concentration causing 50% cell death) ([11]; read-out: LC50 SiHa, 50% cell death, 48 h drug exposure, SRB): 2500 nM; GI50 ([12]; read-out: GI50 Colo 205, 48 h drug exposure, SRB, mean of three determinations): < 10 nM; CC50 ([12]; read-out: LC50 Colo 205): > 100000 nM
